Test results taken from PubChem BioAssay (NCI).
Several values for one entry are separate records, joined by “and”; a condition that tells them apart may be missing. Equal values may be shown once.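 Growth conditions: 96-well plates. Treatment: test compound, 48 hours, 5 concentrations. Analysis: linear interpolation between bracketing concentrations; unreached endpoints set to highest concentration. At the GI50, growth is halved. TGI: concentration producing complete growth inhibition.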

Tests used:
Test in all cases: growth of human tumour cells (NCI), 48 h; in the data active means GI50 below about 0.43 µM; inactive means the rest
[1] = tested on: DMS 273 small cell lung
[2] = tested on: U251 CNS
[3] = tested on: DLD-1 colon
[4] = tested on: SNB-75 CNS
[5] = tested on: SK-OV-3 ovarian
[6] = tested on: SNB-78 CNS
[7] = tested on: HOP-62 NSCLC
[8] = tested on: LXFL 529 NSCLC
[9] = tested on: KM20L2 colon
[10] = tested on: MOLT-4 leukemia
[11] = tested on: HCT-116 colon
[12] = tested on: SF-539 CNS
[13] = tested on: HOP-18 NSCLC
[14] = tested on: MCF7 breast
[15] = tested on: SK-MEL-28 melanoma
[16] = tested on: T-47D breast
[17] = tested on: HS 578T breast
[18] = tested on: XF 498 CNS

CC(=O)Nc1ccc(S(=O)(=O)N/N=C(\C)CN2C(=O)c3ccccc3C2=O)cc1
> 100 µM: TGI [1] | TGI [2] | TGI [3] | TGI [4] | TGI [5] | TGI [6] | TGI [7] | TGI [8] | TGI [9] | TGI [10] | TGI [11] | TGI [12] | TGI [13]

Clc1ccc(C2=Cc3nc2c(-c2ccccc2)c2ccc([nH]2)c(-c2ccccc2)c2nc(c(-c4ccccc4)c4ccc([nH]4)c3-c3ccccc3)C=C2)cc1
> 62.5 µM: TGI [14] | TGI [15] | TGI [2] | TGI [4] | TGI [5] | TGI [16] | TGI [7] | TGI [10] | TGI [11] | TGI [17] | TGI [12]

O=C1NC(=O)C23C(=O)NC(=O)C12C1C=CC3CC1 (stereo not given)
> 10 µM: TGI [14] | TGI [15] | TGI [2] | TGI [4] | TGI [5] | TGI [16] | TGI [7] | TGI [10] | TGI [11] | TGI [17] | TGI [12]

N#Cc1n[nH]n(-c2ccccc2)c1=O
> 100 µM: TGI [14] | TGI [15] | TGI [2] | TGI [4] | TGI [5] | TGI [16] | TGI [7] | TGI [10] | TGI [11] | TGI [17] | TGI [12]

CNc1cc(Cl)ccc1C(=O)N1CCC[C@H]1CO
> 100 µM: TGI [14] | TGI [15] | TGI [2] | TGI [4] | TGI [5] | TGI [16] | TGI [7] | TGI [10] | TGI [11] | TGI [17] | TGI [12]

Cc1ccc(C2SCc3nc4ccccc4n32)cc1 (stereo not given)
7.17 µM: TGI [17]
> 100 µM: TGI [15] | TGI [2] | TGI [16]
20.3 µM: TGI [14]
85.8 µM: TGI [5]
0.0817 µM: TGI [4]
5.47 µM: TGI [12]
15.3 µM: TGI [10]
14 µM: TGI [11]
23.7 µM: TGI [7]

N#CC(C(=S)Nc1ccccc1)=C1Nc2ccccc2N1
> 10 µM: TGI [1] | TGI [15] | TGI [2] | TGI [3] | TGI [4] | TGI [5] | TGI [7] | TGI [8] | TGI [9] | TGI [10] | TGI [11] | TGI [12] | TGI [18] | TGI [13]

FC(F)(F)c1nc2c(ccc3[nH]c4c(-c5ccccc5)nccc4c32)[nH]1
> 100 µM: TGI [15] | TGI [2] | TGI [3] | TGI [4] | TGI [5] | TGI [6] | TGI [7] | TGI [8] | TGI [9] | TGI [10] | TGI [11] | TGI [12] | TGI [18] | TGI [13]

C/C(=N\NC(N)=S)C(CN1CCCCC1)C(C1=C(O)c2ccccc2OC1)c1ccccc1 (stereo not given)
> 100 µM: TGI [14] | TGI [15] | TGI [2] | TGI [4] | TGI [5] | TGI [16] | TGI [7] | TGI [10] | TGI [11] | TGI [17] | TGI [12]

Oc1cc(F)cc2cccnc12
> 39.7 µM: TGI [14]
> 20.9 µM: TGI [11]
1.97 µM: TGI [10]
30 µM: TGI [12]
> 100 µM: TGI [15] | TGI [2] | TGI [4] | TGI [5] | TGI [7] | TGI [17]
> 74.7 µM: TGI [16]

CCOC(=O)c1nc2ccc(C(F)(F)F)cc2nc1NCc1ccc(F)cc1
> 100 µM: TGI [14] | TGI [15] | TGI [2] | TGI [4] | TGI [5] | TGI [7] | TGI [10] | TGI [11] | TGI [12]
84.8 µM: TGI [16]
86.5 µM: TGI [17]

CC(=O)OC1OC(C2c3cccc(O)c3C(=O)c3c(O)cc(CO)cc32)C(O)C(O)C1O (stereo not given)
22.6 µM: TGI [2]
inactive: GI50 [7] 2.38 µM and 5.03 µM
4.22 µM and 4.73 µM: TGI [12]
35.3 µM and > 100 µM: TGI [14]
7.38 µM and 7.12 µM: TGI [17]
11.2 µM and 10.8 µM: TGI [11]
11.6 µM and 18.5 µM: TGI [7]
23.5 µM and 16.3 µM: TGI [4]
27.3 µM and 15.6 µM: TGI [16]
18.3 µM and 90.8 µM: TGI [5]
52.2 µM and 66.5 µM: TGI [10]
9.63 µM: TGI [15]

COc1ccc(N2C(=O)C3c4[nH]c5ccc(OC)cc5c4C4CCC(c5ccccc5)CC4C3C2=O)cc1 (stereo not given)
12.7 µM: TGI [17]
26.1 µM: TGI [5]
16.7 µM: TGI [4]
16.9 µM: TGI [10]
22.8 µM: TGI [2]
37 µM: TGI [15]
13.9 µM: TGI [12]
86.3 µM: TGI [16]
20.8 µM: TGI [7]
> 85.4 µM: TGI [14]
22.7 µM: TGI [11]

CC(=S)NC=C(C(N)=O)C(N)=O
> 100 µM: TGI [14] | TGI [15] | TGI [2] | TGI [4] | TGI [5] | TGI [16] | TGI [7] | TGI [10] | TGI [11] | TGI [17] | TGI [12]

CC1=C(c2ccccc2)CON(c2ccccc2)C1
> 100 µM: TGI [5] | TGI [6] | TGI [7] | TGI [8] | TGI [9] | TGI [10] | TGI [12] | TGI [18]
69 µM: TGI [2]
86.2 µM: TGI [15]
79.9 µM: TGI [11]

COc1ccccc1CC1(O)OC(=O)c2ccccc21 (stereo not given)
> 100 µM: TGI [14] | TGI [15] | TGI [2] | TGI [4] | TGI [5] | TGI [16] | TGI [7] | TGI [10] | TGI [11] | TGI [17] | TGI [12]

O=C(O)c1ccc(C2=Nc3cccc4cccc(c34)N2)cc1
> 100 µM: TGI [14] | TGI [15] | TGI [2] | TGI [4] | TGI [5] | TGI [16] | TGI [7] | TGI [10] | TGI [11] | TGI [17] | TGI [12]

O[C@]12c3ccccc3C1CCCC2N1CCOCC1 (stereo not given in full)
> 100 µM: TGI [1] | TGI [15] | TGI [2] | TGI [4] | TGI [5] | TGI [6] | TGI [7] | TGI [8] | TGI [9] | TGI [10] | TGI [11] | TGI [18] | TGI [13]

COc1c(OC)c(OC)c2c(=O)c(OC)c(-c3ccc4c(c3)OCO4)oc2c1OC
> 100 µM: TGI [14] | TGI [15] | TGI [2] | TGI [4] | TGI [5] | TGI [16] | TGI [7] | TGI [10] | TGI [11] | TGI [17] | TGI [12]
